Assay results published in US20260226049A1, “NITROGEN-CONTAINING HETEROCYCLIC COMPOUND, PREPARATION METHOD THEREFOR, AND USE THEREOF” (BIVISION PHARMACEUTICALS, INC, priority 2023, published 2026).

Tests used:
[1] = test system: HT1080 cell line with high FAP expression; assay: Therapeutic experiment of ^177Lu-labeled compounds in tumor-bearing mice; type: in vivo, Balb/c Nude mice; conditions: for T/C / Tumor volume (mm^3) Group administration Day 14 / TGI^TV (%): 0.8 mCi; for T/C / Tumor volume (mm^3) Group administration Day 14: Day 14; for TGI^TV (%): Day 14, relative tumor inhibition rate; for Tumor volume (mm^3) Before administration: baseline, 0.8 mCi group; for therapeutic effects in mouse tumor model: ^177Lu-labeled compound
Experimental: Balb/c Nude tumor-bearing mice (supplier: Shanghai Alamo Pharmaceutical Technology Co., Ltd., HT1080 cell line with high FAP expression) aged approximately 6-8 weeks were randomly assigned to 13 experimental groups based on tumor volume, with 5 mice per group. Animal body weight and tumor size were measured, and administration was initiated on the grouping day starting with Group 1 (control group: normal saline). General health and appearance were observed daily after the start of the experiment. Animal body weight and tumor size were measured before each sample collection time point. Any abnormal observations detected during the entire study period were required to be recorded in the raw data.
The synthesized compounds were labeled with ^177Lu and subsequently utilized in the therapeutic assay on mouse tumor models. […] Furthermore, no significant changes in mouse body weight (FIG. 8) were observed throughout the experimental period.
• TGI^TV: Relative tumor inhibition rate (TGI^TV): TGI^TV (%)=[1−(Ti−T0)/(Vi−V0)]×100%; • (Ti: average tumor volume of the treatment group on day i of administration, TO: average tumor volume of the treatment group on day 0 of administration; Vi: average tumor volume of the solvent control group on day i of administration, V0: average tumor volume of the solvent control group on day 0 of administration) • T/C: T/C % is one of the most commonly used indicators for tumor response to treatment: T/C %=T/C*100%; • (T represents the average tumor volume of the treatment group at a specific time point; C represents the average tumor volume of the control group at a specific time point.)
The differences between the treatment groups (tumor volumes of the second, third, fourth, and fifth groups) and the control group (tumor volume of the first group) and between the tumor volumes of the first, third, fourth, and fifth groups and the tumor volume of the second group were analyzed using the two-way ANOVA Fisher's LSD test method. P-values less than 0.05 were considered statistically significant. Both statistical significance and biological significance were taken into account during the result analysis.

FAP protein = molecular target: T1, FAP protein (Homo sapiens, UniProt Q12884); assay: Biacore test of ligand binding to FAP protein; conditions: FAP protein on SA chip, 15° C., 1:1 binding model
T1 construct: purchased Sinobiological
T1 sequence (Q12884 1-760): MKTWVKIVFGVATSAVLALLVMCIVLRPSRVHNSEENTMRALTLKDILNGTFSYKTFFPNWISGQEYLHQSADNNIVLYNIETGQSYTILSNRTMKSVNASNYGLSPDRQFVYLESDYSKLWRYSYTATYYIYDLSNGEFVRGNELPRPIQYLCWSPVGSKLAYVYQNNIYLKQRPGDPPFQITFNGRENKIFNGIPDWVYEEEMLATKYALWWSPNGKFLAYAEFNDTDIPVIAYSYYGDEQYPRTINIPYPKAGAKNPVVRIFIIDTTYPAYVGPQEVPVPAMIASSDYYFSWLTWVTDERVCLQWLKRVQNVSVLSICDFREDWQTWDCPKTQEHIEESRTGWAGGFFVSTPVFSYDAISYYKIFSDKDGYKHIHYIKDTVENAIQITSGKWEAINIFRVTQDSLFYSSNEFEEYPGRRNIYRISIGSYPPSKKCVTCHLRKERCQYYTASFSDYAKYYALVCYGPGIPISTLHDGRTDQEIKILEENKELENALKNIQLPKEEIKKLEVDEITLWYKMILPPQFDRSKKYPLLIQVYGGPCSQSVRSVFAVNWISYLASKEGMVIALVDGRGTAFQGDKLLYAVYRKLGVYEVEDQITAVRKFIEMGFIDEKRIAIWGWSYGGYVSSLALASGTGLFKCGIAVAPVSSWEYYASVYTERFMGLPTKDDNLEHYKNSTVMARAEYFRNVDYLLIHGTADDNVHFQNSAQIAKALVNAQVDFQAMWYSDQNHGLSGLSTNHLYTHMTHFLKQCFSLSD
Experimental: The Biacore 8K (Cytiva) instrument was used to detect ligand binding of the FAP protein (Sinobiological). The FAP protein was captured on the SA chip. Before ligand immobilization (flow paths 1 and 2, flow rate of 10 μL/min), the FAP protein (10 μg/mL, flow rate of 5 μL/min, injection time of 600 s) was immobilized on flow path 2 using running buffer, and the sensor surface was conditioned with three consecutive injections of 1 M NaCl in 50 mM NaOH. After each ligand injection, additional washing was carried out with isopropanol in 1 M NaCl and 50 mM NaOH (flow paths 1 and 2, flow rate of 10 μL/min, injection time of 60 s).
The test compounds were dissolved in 100% dimethyl sulfoxide and diluted to 10 mM, then further diluted in the assay buffer (PBS, pH 7.4, 1 mM TCEP ([…]), 0.05% P20, 2% dimethyl sulfoxide) to appropriate maximum concentrations. The analyte was run under the following conditions: analysis temperature=15° C., analysis step=all set to LMW kinetics; cycle type=single cycle (90 s contact time, 1800 s dissociation time, 30 μL/min flow rate, flow channels 1, 2); flow channel detection=2-1). Data evaluation was performed using Biacore Insight Evaluation Software, and the data were fitted to a 1:1 binding model.
The Biacore results are shown in Table 1: pKD=−Log KD, where KD is the binding affinity of the compound to the FAP protein as measured by Biacore. The binding affinity is expressed by KD (M)=Kd(1/s)/Ka(1/Ms). Where A: pKD>8, B: 7<pKD<8, C: 6<pKD<7, D: pKD<6.

| SMILES | T/C [1] | Tumor volume (mm^3) Group administration Day 14 [1] | TGI^TV (%) [1] | Tumor volume (mm^3) Before administration [1] | therapeutic effects in mouse tumor model [1] | Kd (FAP protein) |
| --- | --- | --- | --- | --- | --- | --- |
| N#C[C@@H]1CC(F)(F)CN1C(=O)CNC(=O)c1cccc2c1CCCN2C(=O)CCC(=O)NCCNC(=O)CCC(C(=O)O)N1CCN(CC(=O)O)CCN(CC(=O)O)CCN(CC(=O)O)CC1.[177Lu] (stereo partly drawn) [^177Lu-JHH10] | 19.38% | 506.26 ± 26.61 mm^3 | 84.48% | 141.47 ± 12.20 mm^3 |  |  |
| N#C[C@@H]1CC(F)(F)CN1C(=O)CNC(=O)c1cccc2c1CCCC2C(=O)CCC(=O)NCCNC(=O)CCNC(=O)CN1CCN(CC(=O)O)CCN(CC(=O)O)CCN(CC(=O)O)CC1 (stereo partly drawn) [JHH14] |  |  |  |  | dose-dependent therapeutic effects |  |
| O=C(O)CN1CCN(CC(=O)O)CCN(CC(=O)NCc2ccc(C(=O)N[C@H](CO)C(=O)N3CCC[C@H]3B(O)O)cc2)CCN(CC(=O)O)CC1 [JHB1] |  |  |  |  |  | 0.01 to 0.1 µM |
| N#C[C@@H]1CC(F)(F)CC1C(=O)CNC(=O)c1ccc2c(c1)CCN(C(=O)CCC(=O)NCCNC(=O)CCC(C(=O)O)N1CCN(CC(=O)O)CCN(CC(=O)O)CCN(CC(=O)O)CC1)C2 (stereo partly drawn) [JHH6] |  |  |  |  |  | 0.1 to 1 µM |
| N#C[C@@H]1CC(F)(F)CN1C(=O)CNC(=O)c1cccc(C2CCN(C(=O)CCC(=O)NCCNC(=O)CCC(C(=O)O)N3CCN(CC(=O)O)CCN(CC(=O)O)CCN(CC(=O)O)CC3)CC2)c1 (stereo partly drawn) [JHH9] |  |  |  |  | dose-dependent therapeutic effects | < 0.01 µM |
| N#C[C@@H]1CC(F)(F)CN1C(=O)CNC(=O)c1cnc2c(c1)CCN(C(=O)CCC(=O)NCCNC(=O)CCC(C(=O)O)N1CCN(CC(=O)O)CCN(CC(=O)O)CCN(CC(=O)O)CC1)C2 (stereo partly drawn) [JHH1, 2,2′,2″-(10-(1-carboxy-4-((2-(4-(3-((2-((S)-2-cyano-4,4-difluoropyrrolidin-1-yl)-2-oxoethyl)carbamoyl)-5,8-dihydro-1,7-naphthyridin-7 (6H)-yl)-4-oxobutanamido)ethyl)amino)-4-oxobutyl)-1,4,7,10-tetraazacyclododecane-1,4,7-triyl)triacetic acid] |  |  |  |  | dose-dependent therapeutic effects | 0.01 to 0.1 µM |
| N#C[C@@H]1CC(F)(F)CN1C(=O)CNC(=O)c1cccc2c1CCN(C(=O)CCC(=O)NCCNC(=O)CCC(C(=O)O)N1CCN(CC(=O)O)CCN(CC(=O)O)CCN(CC(=O)O)CC1)C2 (stereo partly drawn) [^177Lu-JHH5, metal not drawn] | 20.89% | 545.74 ± 94.21 mm^3 | 83.08% | 148.04 ± 9.78 mm^3 |  |  |
| N#C[C@@H]1CC(F)(F)CN1C(=O)CNC(=O)c1cccc(C2CCN(C(=O)CCC(=O)NCCNC(=O)CCC(C(=O)O)N3CCN(CC(=O)O)CCN(CC(=O)O)CCN(CC(=O)O)CC3)CC2)c1.[177Lu] (stereo partly drawn) [^177Lu-JHH9] | 30.65% | 800.87 ± 42.08 mm^3 | 72.54% | 155.24 ± 14.81 mm^3 |  |  |
| C[C@@H]1CC(F)(F)CN1C(=O)CNC(=O)c1ccc2c(c1)CN(C(=O)CCC(=O)NCCNC(=O)CCC(C(=O)O)N1CCN(CC(=O)O)CCN(CC(=O)O)CCN(CC(=O)O)CC1)C2 (stereo partly drawn) [JHH7] |  |  |  |  |  | < 0.01 µM |
| N#C[C@@H]1CC(F)(F)CN1C(=O)CNC(=O)c1cccc2c1CCCC2C(=O)CCC(=O)NCCNC(=O)CCNC(=O)CN1CCN(CC(=O)O)CCN(CC(=O)O)CCN(CC(=O)O)CC1.[177Lu] (stereo partly drawn) [^177Lu-JHH14] | 28.93% | 755.85 ± 58.74 mm^3 | 74.39% | 153.87 ± 16.47 mm^3 |  |  |
